“Also recorded” adds a separate entry of the source.
Key:
[1] = system: mast cell burden (serum tryptase, bone marrow mast cells, KIT D816V allele burden); assay: Phase 2 PIONEER trial Part 1: measures of mast cell burden; assay type: in vivo, human
Procedure: This is a Phase 2, randomized, double-blind, placebo-controlled study comparing the efficacy and safety of Compound (I)+best supportive care (BSC) with placebo+BSC in patients with ISM and SSM whose symptoms are not adequately controlled by BSC. The study is conducted in three parts. In Part 1, the optimal dose Compound (I) (recommended phase 2 dose (RP2D)) was identified in patients with ISM. In Part 2, patients with ISM and SSM are randomly assigned to the RP2D of Compound (I) identified in Part 1+BSC, or to matching placebo+BSC. In Part 3, patients who have completed treatment in Part 1 or Part 2 of the study participate in a long-term extension, receiving Compound (I) at the RP2D+BSC.
Once BSC was optimized (between Day −98 and Day −71) and doses were stable for ≥14 days, ISM-SAF data was collected for an additional 14 days to determine eligibility based on symptom severity i.e., to identify ISM and SSM patients having moderate-to-severe symptoms. Patients not meeting the symptom severity threshold were deemed screen failures and were not eligible for study participation. Patients having moderate-to-severe symptoms and meeting the threshold for symptom severity began other screening procedures, including the following: Bone marrow (BM) biopsy (an archival sample obtained within the preceding 24 weeks or a fresh sample) and skin biopsy of lesional and nonlesional skin (in patients with cutaneous mastocytosis (CM)) were performed for confirmation of SM diagnosis and quantification of mast cells (MCs); patients with CM (maculopapular) had skin photographs taken. […]
Compound (I) was administered orally, once a day in continuous 28-day cycles. Patients were assessed weekly for the first 4 weeks, then every 4 weeks (until the RP2D was determined) for safety, laboratory monitoring, and quality of life (QoL) assessments. […] After completion of 12 weeks of treatment, BM and skin biopsy were repeated for MC quantification and skin photographs were taken in patients with baseline CM. […]

[2] = system: tyrosine kinase inhibitor (TKI)-resistant mastocytoma model; assay: TKI-resistant mastocytoma model in vivo
PDGFRA D842V-mutant GIST = assay: Phase 1 dose escalation and expansion study in advanced GIST: efficacy (mRECIST 1.1, central radiology); assay type: in vivo, human; conditions: for OS (estimated): median follow up 15.9 months
From the text: Patients: Eligibility criteria for the phase 1 dose escalation and expansion study included provision of written informed consent, age ≥18 years, Eastern Cooperative Oncology Group performance status ≤2, and adequate end-organ function. The dose escalation part of the trial was open to patients with refractory solid tumors or unresectable GIST; however, only GIST patients were enrolled. Patients with unresectable GIST who had one or more measurable target lesion per modified Response Evaluation Criteria in Solid Tumors version 1.1 (mRECIST 1.1) were eligible for the dose expansion, which included three cohorts: patients with PDGFRA D842V-mutant GIST regardless of prior therapy; patients who progressed following imatinib and one or more other kinase inhibitors; and patients who received only imatinib.
Study Design: The primary endpoints of the phase 1, open-label dose escalation/expansion study were safety and tolerability of Compound (I) administered orally once daily and overall response rate (ORR) for each expansion cohort. Part 1 followed a 3+3 dose-escalation design, starting at 30 mg and continuing until the maximum tolerated dose (MTD) or the recommended phase 2 dose (RP2D) below the MTD was determined. Intrapatient dose escalation was permitted, and additional accrual was allowed to dose levels previously determined tolerable. The part 1 MTD was used to initiate the part 2 expansion. Treatment with Compound (I) was continued until precluded by toxicity, noncompliance, withdrawal of consent, physician decision, progressive disease, death, or closure of the study.
Safety and Response Assessments: Adverse events were evaluated at each visit from the start of study drug administration up to 30 days after the final dose of Compound (I) and were graded according to the National Cancer Institute Common Terminology Criteria for Adverse Events (NCI CTCAE) version 4.03. All patients underwent tumor imaging for response assessment via computed tomography (CT) or magnetic resonance imaging (MRI) at screening, every two cycles through and including cycle 13, then every three months until progression or discontinuation. Target and non-target lesions were identified and assessed per mRECIST 1.1 for GIST by independent, blinded, central radiographic review (BioTelemetry, Inc., Rockville, MD, USA).
Statistical Methods: The MTD, defined as the highest dose level with ≤1 cycle 1 dose limiting toxicity in six patients, was determined from all part 1 patients who completed cycle 1 and received at least 75% of their prescribed doses or experienced a dose limiting toxicity (DLT) (dose-determining population). The efficacy population included patients who received at least one dose of Compound (I) enrolled in part 1 or part 2 with PDGFRα D842V-mutant GIST who had one or more target lesions and at least one post-baseline disease assessment by central radiology. For the primary endpoint of partial or complete response, a sample size of 31 patients allowed testing the null hypothesis of overall response rate ≤10% versus the alternative hypothesis of objective response rate ≥35% with 90% power, assuming a 2-sided type I error rate of 0.05. Kaplan-Meier methods were used to estimate duration of response, PFS and OS, including the median with 95% confidence intervals. Estimated duration of response, PFS, and OS rates at 3-, 6-, and 12-months were also calculated.

Compound: Cn1cc(-c2cc3c(N4CCN(c5ncc([C@@](C)(N)c6ccc(F)cc6)cn5)CC4)ncnn3c2)cn1 [Compound (I), (S)-1-(4-fluorophenyl)-1-(2-(4-(6-(1-methyl-1H-pyrazol-4-yl)pyrrolo[2,1-f][1,2,4]triazin-4-yl)piperazin-1-yl)pyrimidin-5-yl)ethan-1-amine]
- Blood KIT D816V allele fraction ([1]; 25 mg QD, similar to 50 mg and 100 mg QD): significant reduction
- Serum tryptase, mast cell burden and KIT D816V allele burden ([1]; 25 mg once daily, ISM patients, vs placebo, FIG. 13): significant reductions; also recorded: robust reductions; also recorded: robust declines
- KIT D816V allele burden ([1]; all dose cohorts (25, 50, 100 mg once daily), ISM patients, FIG. 12): significant decreases
- Growth inhibition in TKI-resistant mastocytoma model [2]: robust growth inhibition
- CBR (CR + PR + SD) (PDGFRA D842V-mutant GIST; 300 mg (n = 28)): (96.4) %
- CBR (CR + PR + SD), number of patients (PDGFRA D842V-mutant GIST; 300 mg (n = 28)): 27 n
- CR (PDGFRA D842V-mutant GIST; 300 mg (n = 28)): (3.6) %
- CR, number of patients (PDGFRA D842V-mutant GIST; 300 mg (n = 28)): 1 n
- ORR (CR + PR), number of patients (PDGFRA D842V-mutant GIST; 300 mg (n = 28)): 26 n
- PD, number of patients (PDGFRA D842V-mutant GIST; 300 mg (n = 28)): 0 n
- PR (PDGFRA D842V-mutant GIST; 300 mg (n = 28)): (89.2) %
- PR, number of patients (PDGFRA D842V-mutant GIST; 300 mg (n = 28)): 25 n
- Progression free survival rate (PDGFRA D842V-mutant GIST; 3-month): 100%
- Progression free survival rate (PDGFRA D842V-mutant GIST; 6-month): 94%
- OS (estimated) (PDGFRA D842V-mutant GIST; 6 months): 100%
- Progression free survival rate (PDGFRA D842V-mutant GIST; 12-month): 90%
- OS (estimated) (PDGFRA D842V-mutant GIST; 12 months): 91%
- OS (estimated) (PDGFRA D842V-mutant GIST; 24 months): 81%
- CBR (CR + PR + SD), number of patients (PDGFRA D842V-mutant GIST; All Doses (n = 56)): 53 n
- CR, number of patients (PDGFRA D842V-mutant GIST; All Doses (n = 56)): 5 n
- ORR (CR + PR), number of patients (PDGFRA D842V-mutant GIST; All Doses (n = 56)): 49 n
- PD, number of patients (PDGFRA D842V-mutant GIST; All Doses (n = 56)): 0 n
- PR, number of patients (PDGFRA D842V-mutant GIST; All Doses (n = 56)): 44 n
- Median PFS (PDGFRA D842V-mutant GIST; all dose levels): not reached
- Median duration of response (PDGFRA D842V-mutant GIST; all dose levels): not reached
- 12-month duration of response (PDGFRA D842V-mutant GIST; all dose levels, Kaplan-Meier): 70%

Reference: patent publication US11964980B2, “Crystalline forms of (S)-1-(4-fluorophenyl)-1-(2-(4-(6-(1-methyl-1H-pyrazol-4-yl)pyrrolo[2,1- f][1,2,4]triazin-4-yl)piperazinyl)-pyrimidin-5-yl)ethan-1-amine and methods of making” (Blueprint Medicines Corporation, priority 2019, dated 2024)
